Results taken from patent publication US9139609B2, “C-4″ position substituted macrolide derivative” (priority 2011, dated 2015).
Converted amounts (≈) assume the structure as drawn.

Key:
[1] = test system: Streptococcus pneumoniae ATCC49619; assay: In vitro antibacterial activity, microbroth dilution method (CLSI method), test bacterium B; format: cell-based; details: for MIC: read-out: MIC (minimum inhibitory concentration), test bacterium B
Procedure: (§1) In vitro antibacterial activities of the compounds of the present invention against various test bacteria were measured according to the microbroth dilution method (CLSI method). Among them, the bacteria C, D and E are erythromycin resistant bacteria. The MIC values (minimum inhibitory concentration, μg/ml) for the test bacteria A and B are exemplified in Table 22.

[2] = test system: Haemophilus infuenzae ATCC43095; assay: In vitro antibacterial activity, microbroth dilution method (CLSI method), test bacterium A; format: cell-based; details: for MIC: read-out: MIC (minimum inhibitory concentration), test bacterium A
Procedure: as §1

Structure (SMILES) | MIC [1] | MIC [2] | MIC (minimum inhibitory concentration), test bacterium B [1] | MIC (minimum inhibitory concentration), test bacterium A [2]
CC[C@H]1OC(=O)[C@H](C)[C@@H](O[C@H]2C[C@@](C)(OC)[C@@](O)(CN(C)CCN(CC)C(=O)OC)[C@H](C)O2)[C@H](C)[C@@H](O[C@@H]2O[C@H](C)C[C@H](N(C)C)[C@H]2O)[C@@](C)(OC)C[C@@H](C)C(=O)[C@H](C)[C@H]2NC(=O)O[C@@]21C [Example264] | 0.06 µg/mL (≈ 0.0635 µM) | 8 µg/mL (≈ 8.46 µM) |  | 
CC[C@H]1OC(=O)[C@H](C)[C@@H](O[C@H]2C[C@@](C)(OC)[C@@](O)(CN(C)CCN(CC)CC)[C@H](C)O2)[C@H](C)[C@@H](O[C@@H]2O[C@H](C)C[C@H](N(C)C)[C@H]2O)[C@@](C)(OC)C[C@@H](C)C(=O)[C@H](C)[C@H]2NC(=O)O[C@@]21C [Example299] | 0.03 µg/mL (≈ 0.0328 µM) | 4 µg/mL (≈ 4.37 µM) |  | 
CC[C@H]1OC(=O)[C@H](C)[C@@H](O[C@H]2C[C@@](C)(OC)[C@@](O)(CN(C)C(=O)CN(CC)CC)[C@H](C)O2)[C@H](C)[C@@H](O[C@@H]2O[C@H](C)C[C@H](N(C)C)[C@H]2O)[C@@](C)(OC)C[C@@H](C)C(=O)[C@H](C)[C@H]2NC(=O)O[C@@]21C [Example329] | 0.03 µg/mL (≈ 0.0323 µM) | 8 µg/mL (≈ 8.61 µM) |  | 
CC[C@H]1OC(=O)[C@H](C)[C@@H](O[C@H]2C[C@@](C)(OC)[C@@](O)(CN(C)CCN(C)C(C)(C)c3ccccc3OC)[C@H](C)O2)[C@H](C)[C@@H](O[C@@H]2O[C@H](C)C[C@H](N(C)C)[C@H]2O)[C@]2(C)C[C@@H](C)C(O2)[C@H](C)[C@H]2NC(=O)O[C@@]21C [Example332] | 0.06 µg/mL (≈ 0.0605 µM) | 4 µg/mL (≈ 4.04 µM) |  | 
CC[C@H]1OC(=O)[C@H](C)[C@@H](O[C@H]2C[C@@](C)(OC)[C@@](O)(CN(C)CCN(C)C(C)(C)c3ccccc3OC)[C@H](C)O2)[C@H](C)[C@@H](O[C@@H]2O[C@H](C)C[C@H](N(C)C)[C@H]2O)[C@@](C)(OC)C[C@@H](C)C2=NCCN3C(=O)O[C@@]1(C)[C@H]3[C@H]2C [Example338] | 0.06 µg/mL (≈ 0.0573 µM) | 8 µg/mL (≈ 7.65 µM) |  | 
CC[C@H]1OC(=O)[C@H](C)[C@@H](O[C@H]2C[C@@](C)(OC)[C@@](O)(CN(C)CCN(C)C(C)(C)c3ccccc3OC)[C@H](C)O2)[C@H](C)[C@@H](O[C@@H]2O[C@H](C)C[C@H](N(C)C)[C@H]2O)[C@@](C)(OC)C[C@@H](C)[C@@H]2NCCN3C(=O)O[C@@]1(C)[C@H]3[C@@H]2C [Example340] | 0.06 µg/mL (≈ 0.0572 µM) | 4 µg/mL (≈ 3.82 µM) |  | 
CC[C@H]1OC(=O)[C@H](C)[C@@H](O[C@H]2C[C@@](C)(OC)[C@@](O)(CN(C)CCN(C)C(C)(C)c3ccccc3OC)[C@H](C)O2)[C@H](C)[C@@H](O[C@@H]2O[C@H](C)C[C@H](N(C)C)[C@H]2O)[C@@]2(C)C[C@@H](C)C3(NCCN4C(=O)O[C@@]1(C)[C@H]4[C@H]3C)O2 [Example341] |  |  | 0.06 µg/mL (≈ 0.0581 µM) | 4 µg/mL (≈ 3.87 µM)
CC[C@H]1OC(=O)[C@H](C)[C@@H](O[C@H]2C[C@@](C)(OC)[C@@](O)(CN(C)CCN(C)C(C)(C)c3ccccc3OC)[C@H](C)O2)[C@H](C)[C@@H](O[C@@H]2O[C@H](C)C[C@H](N(C)C)[C@H]2O)[C@@](C)(OC(N)=O)C[C@@H](C)C(=O)[C@H](C)[C@H]2NC(=O)O[C@@]21C [Example342] | 0.06 µg/mL (≈ 0.0571 µM) | 4 µg/mL (≈ 3.81 µM) |  | 
CC[C@H]1OC(=O)[C@H](C)[C@@H](O[C@H]2C[C@@](C)(OC)[C@@](O)(CN(C)CCN(C)C)[C@H](C)O2)[C@H](C)[C@@H](O[C@@H]2O[C@H](C)C[C@H](N(C)C)[C@H]2O)[C@@](C)(OC(=O)NC/C=C/c2ccc3ncccc3c2)C[C@@H](C)C(=O)[C@H](C)[C@H]2NC(=O)O[C@@]21C [Example348] | 0.03 µg/mL (≈ 0.0277 µM) | 16 µg/mL (≈ 14.8 µM) |  | 
CC[C@H]1OC(=O)[C@H](C)[C@@H](O[C@H]2C[C@@](C)(OC)[C@@](O)(CN(C)CCN(C)C(C)(C)c3ccccc3OC)[C@H](C)O2)[C@H](C)[C@@H](O[C@@H]2O[C@H](C)C[C@H](N(C)C)[C@H]2O)[C@@](C)(OC)C[C@@H](C)C(=O)[C@H](C)[C@H]2C(C#N)C(=O)O[C@@]21C (stereo partly drawn) [Example363] | 0.06 µg/mL (≈ 0.0574 µM) | 8 µg/mL (≈ 7.65 µM) |  | 
CC[C@H]1OC(=O)[C@H](C)[C@@H](O[C@H]2C[C@@](C)(OC)[C@@](O)(CN(C)CCN(C)C)[C@H](C)O2)[C@H](C)[C@@H](O[C@@H]2O[C@H](C)C[C@H](N(C)C)[C@H]2O)[C@@](C)(OC)C[C@@H](C)C(=O)[C@H](C)[C@H]2C(SCCCn3cnc4c(N)ncnc43)C(=O)O[C@@]21C (stereo partly drawn) [Example364] | 0.03 µg/mL (≈ 0.0274 µM) | 8 µg/mL (≈ 7.32 µM) |  | 
CC[C@H]1OC(=O)[C@H](C)[C@@H](O[C@H]2C[C@@](C)(OC)[C@@](O)(CN(C)CCN(C(C)C)C(C)C)[C@H](C)O2)[C@H](C)[C@@H](O[C@@H]2O[C@H](C)C[C@H](N(C)C)[C@H]2O)[C@@](C)(OC)C[C@@H](C)C(=O)[C@H](C)[C@H]2N(CCNS(C)(=O)=O)C(=O)O[C@]12C [Example404] | 0.03 µg/mL (≈ 0.0282 µM) | 4 µg/mL (≈ 3.76 µM) |  | 
